Columns and labels:
bedstraw = assay: Test B pre/postemergence bedstraw; type: in vivo, Galium aparine
Procedure, shortened: (§1)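 Response is a visual 0-to-10 score relative to untreated plants, where 0 means no effect and 10 means complete control, taken twelve to sixteen days after application. Treatments went onto soil at planting and onto foliage of 1- to 4-leaf plants, using a surfactant-containing non-phytotoxic solvent.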

blackgrass = assay: Test B pre/postemergence blackgrass; type: in vivo, Alopecurus myosuroides
Procedure, shortened: as §1

surinam grass = assay: Test B pre/postemergence surinam grass; type: in vivo, Brachiaria decumbens
Procedure, shortened: as §1

cocklebur = assay: Test B pre/postemergence cocklebur; type: in vivo, Xanthium strumarium
Procedure, shortened: as §1

corn = assay: Test B pre/postemergence corn; type: in vivo, Zea mays
Procedure, shortened: as §1

crabgrass = assay: Test B pre/postemergence crabgrass; type: in vivo, Digitaria sanguinalis
Procedure, shortened: as §1

giant foxtail = assay: Test B pre/postemergence giant foxtail; type: in vivo, Setaria faberii
Procedure, shortened: as §1

morningglory = assay: Test B pre/postemergence morningglory; type: in vivo, Ipomoea hederacea
Procedure, shortened: as §1

pigweed = assay: Test B pre/postemergence pigweed; type: in vivo, Amaranthus retroflexus
Procedure, shortened: as §1

soybean = assay: Test B pre/postemergence soybean; type: in vivo, Glycine max
Procedure, shortened: as §1

velvetleaf = assay: Test B pre/postemergence velvetleaf; type: in vivo, Abutilon theophrasti
Procedure, shortened: as §1

wheat = assay: Test B pre/postemergence wheat; type: in vivo, Triticum aestivum
Procedure, shortened: as §1

wild oat = assay: Test B pre/postemergence wild oat; type: in vivo, Avena fatua
Procedure, shortened: as §1

rice = assay: Test B flood test rice; type: in vivo, Oryza sativa
Procedure, shortened: (§2)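 Each value is a visual injury score relative to controls, with 10 meaning complete control and 0 no effect. Evaluation took place twelve to sixteen days after the 2-leaf-stage plants were treated and kept in the greenhouse.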

smallflower flatsedge = assay: Test B flood test smallflower flatsedge; type: in vivo, Cyperus difformis
Procedure, shortened: as §2

bamyardgrass = assay: Test B flood test barnyardgrass; type: in vivo, Echinochloa crus-galli
Procedure, shortened: as §2

[1] = Postemergence, Rate 62 g/ha, scale 0 to 10, 0 is no effect, 10 is complete control
[2] = Postemergence, Rate 250 g/ha, scale 0 to 10, 0 no effect, 10 complete control
[3] = Preemergence, Rate 62 g/ha, scale 0 to 10 (0 no effect, 10 complete control)
[4] = Preemergence, Rate 125 g/ha, scale 0 to 10 (0 no effect, 10 complete control)
[5] = Preemergence, Rate 250 g/ha, scale of 0 to 10 where 0 is no effect and 10 is complete control
[6] = Preemergence, Rate 500 g/ha, scale 0 (no effect) to 10 (complete control)
[7] = Rate 125 g/ha, Postemergence, scale 0 to 10, 0 no effect, 10 complete control
[8] = Rate 500 g/ha, Postemergence, scale 0 to 10, 0 no effect, 10 complete control
[9] = Rate 125 g/ha, Postemergence section (flood test species), scale 0 to 10, 0 no effect, 10 complete control
[10] = Rate 500 g/ha, listed under Postemergence (flood test species), scale 0 to 10, 0 no effect, 10 complete control
[11] = flood test, listed under Postemergence, Rate 250 g/ha, scale 0 to 10, 0 no effect, 10 complete control

In the case of Cc1ccccc1-n1c(=O)on(C(=O)N(c2cc(F)cc(F)c2)C(C)C)c1=O [Compound 67], the “Bedstraw plant response rating” value (bedstraw; [1]) is reported as 0, the “Bedstraw plant response rating” value (bedstraw; [2]) is reported as 7 and the “Bedstraw plant response rating” value (bedstraw; [3]) is reported as 0. The “Plant response rating, Bedstraw” value (bedstraw; [4]) was 0, the “Plant response rating, Bedstraw” value (bedstraw; [5]) was 0 and the “Bedstraw plant response rating” value (bedstraw; [6]) was 0. The “Bedstraw plant response rating” value (bedstraw; [7]) was 5, the “Bedstraw plant response rating” value (bedstraw; [8]) was 8 and the “Blackgrass plant response rating” value (blackgrass; [1]) was 0. For the same compound, the “Blackgrass plant response rating” value (blackgrass; [2]) was 0, the “Blackgrass plant response rating” value (blackgrass; [3]) was 0 and the “Plant response rating, Blackgrass” value (blackgrass; [4]) was 0. The “Plant response rating, Blackgrass” value (blackgrass; [5]) was 2, the “Blackgrass plant response rating” value (blackgrass; [6]) was 2 and the “Blackgrass plant response rating” value (blackgrass; [7]) was 0. The “Blackgrass plant response rating” value (blackgrass; [8]) was 0, the “B. signalgrass plant response rating” value (surinam grass; [1]) was 0 and the “B. signalgrass plant response rating” value (surinam grass; [2]) was 0. The “B. signalgrass plant response rating” value (surinam grass; [3]) was 0, the “Plant response rating, B. signalgrass” value (surinam grass; [4]) was 0 and the “Plant response rating, B. signalgrass” value (surinam grass; [5]) was 0. The “B. signalgrass plant response rating” value (surinam grass; [6]) was 2, the “B. signalgrass plant response rating” value (surinam grass; [7]) was 0 and the “B. signalgrass plant response rating” value (surinam grass; Rate 500 g/ha, Postemergence, scale of 0 to 10 where 0 is no effect and 10 is complete control) was 0. For the same compound, the “Cocklebur plant response rating” value (cocklebur; [1]) was 0, the “Cocklebur plant response rating” value (cocklebur; [2]) was 1 and the “Cocklebur plant response rating” value (cocklebur; [3]) was 0. The “Plant response rating, Cocklebur” value (cocklebur; [4]) was 0, the “Plant response rating, Cocklebur” value (cocklebur; [5]) was 0 and the “Cocklebur plant response rating” value (cocklebur; [6]) was 0. The “Cocklebur plant response rating” value (cocklebur; [7]) was 0, the “Cocklebur plant response rating” value (cocklebur; [8]) was 1 and the “Corn plant response rating” value (corn; [1]) was 0. The “Corn plant response rating” value (corn; [2]) was 0, the “Corn plant response rating” value (corn; [3]) was 0 and the “Plant response rating, Corn” value (corn; [4]) was 0. For the same compound, the “Plant response rating, Corn” value (corn; [5]) was 0, the “Corn plant response rating” value (corn; [6]) was 0 and the “Corn plant response rating” value (corn; [7]) was 0. The “Corn plant response rating” value (corn; [8]) was 0, the “Crabgrass plant response rating” value (crabgrass; [1]) was 0 and the “Crabgrass plant response rating” value (crabgrass; [2]) was 0. For the same compound, the “Crabgrass plant response rating” value (crabgrass; [3]) was 2, the “Plant response rating, Crabgrass” value (crabgrass; [4]) was 4 and the “Plant response rating, Crabgrass” value (crabgrass; [5]) was 4. The “Crabgrass plant response rating” value (crabgrass; [6]) was 7, the “Crabgrass plant response rating” value (crabgrass; [7]) was 0 and the “Crabgrass plant response rating” value (crabgrass; [8]) was 0. For the same compound, the “Giant foxtail plant response rating” value (giant foxtail; [1]) was 0, the “Giant foxtail plant response rating” value (giant foxtail; [2]) was 0 and the “Giant foxtail plant response rating” value (giant foxtail; [3]) was 3. For the same compound, the “Plant response rating, Giant foxtail” value (giant foxtail; [4]) was 7, the “Plant response rating, Giant foxtail” value (giant foxtail; [5]) was 8 and the “Giant foxtail plant response rating” value (giant foxtail; [6]) was 8. The “Giant foxtail plant response rating” value (giant foxtail; [7]) was 0, the “Giant foxtail plant response rating” value (giant foxtail; [8]) was 0 and the “Morningglory plant response rating” value (morningglory; [1]) was 0. The “Morningglory plant response rating” value (morningglory; [2]) was 2, the “Morningglory plant response rating” value (morningglory; [3]) was 0 and the “Plant response rating, Morningglory” value (morningglory; [4]) was 0. The “Plant response rating, Morningglory” value (morningglory; [5]) was 0, the “Morningglory plant response rating” value (morningglory; [6]) was 0 and the “Morningglory plant response rating” value (morningglory; [7]) was 2. For the same compound, the “Morningglory plant response rating” value (morningglory; [8]) was 6, the “Redroot pigweed plant response rating” value (pigweed; [1]) was 0 and the “Redroot pigweed plant response rating” value (pigweed; [2]) was 0. For the same compound, the “Redroot pigweed plant response rating” value (pigweed; [3]) was 4, the “Plant response rating, Redroot pigweed” value (pigweed; [4]) was 4 and the “Plant response rating, Redroot pigweed” value (pigweed; [5]) was 9. For the same compound, the “Redroot pigweed plant response rating” value (pigweed; [6]) was 10, the “Redroot pigweed plant response rating” value (pigweed; [7]) was 0 and the “Redroot pigweed plant response rating” value (pigweed; [8]) was 4. For the same compound, the “Soybean plant response rating” value (soybean; [1]) was 0, the “Soybean plant response rating” value (soybean; [2]) was 1 and the “Soybean plant response rating” value (soybean; [3]) was 0. For the same compound, the “Plant response rating, Soybean” value (soybean; [4]) was 0, the “Plant response rating, Soybean” value (soybean; [5]) was 0 and the “Soybean plant response rating” value (soybean; [6]) was 0. The “Soybean plant response rating” value (soybean; [7]) was 1, the “Soybean plant response rating” value (soybean; [8]) was 1 and the “Velvetleaf plant response rating” value (velvetleaf; [1]) was 0. For the same compound, the “Velvetleaf plant response rating” value (velvetleaf; [2]) was 0, the “Velvetleaf plant response rating” value (velvetleaf; [3]) was 0 and the “Plant response rating, Velvetleaf” value (velvetleaf; [4]) was 0. The “Plant response rating, Velvetleaf” value (velvetleaf; [5]) was 0, the “Velvetleaf plant response rating” value (velvetleaf; [6]) was 0 and the “Velvetleaf plant response rating” value (velvetleaf; [7]) was 0. For the same compound, the “Velvetleaf plant response rating” value (velvetleaf; [8]) was 0, the “Wheat plant response rating” value (wheat; [1]) was 0 and the “Wheat plant response rating” value (wheat; [2]) was 0. For the same compound, the “Wheat plant response rating” value (wheat; [3]) was 0, the “Plant response rating, Wheat” value (wheat; [4]) was 0 and the “Plant response rating, Wheat” value (wheat; [5]) was 0. For the same compound, the “Wheat plant response rating” value (wheat; [6]) was 0, the “Wheat plant response rating” value (wheat; [7]) was 0 and the “Wheat plant response rating” value (wheat; [8]) was 0. For the same compound, the “Wild oats plant response rating” value (wild oat; [1]) was 0, the “Wild oats plant response rating” value (wild oat; [2]) was 0 and the “Wild oats plant response rating” value (wild oat; [3]) was 0. The “Plant response rating, Wild oats” value (wild oat; [4]) was 0, the “Plant response rating, Wild oats” value (wild oat; [5]) was 0 and the “Wild oats plant response rating” value (wild oat; [6]) was 2. The “Wild oats plant response rating” value (wild oat; [7]) was 0, the “Wild oats plant response rating” value (wild oat; [8]) was 0 and the “Rice plant response rating” value (rice; [1]) was 0. The “Rice plant response rating” value (rice; [9]) was 0, the “Rice plant response rating” value (rice; [10]) was 0 and the “Rice plant response rating” value (rice; [11]) was 0. For the same compound, the “S. Flatsedge plant response rating” value (smallflower flatsedge; [1]) was 0, the “S. Flatsedge plant response rating” value (smallflower flatsedge; [9]) was 0 and the “S. Flatsedge plant response rating” value (smallflower flatsedge; [10]) was 0. The “S. Flatsedge plant response rating” value (smallflower flatsedge; [11]) was 0, the “Barnyardgrass plant response rating” value (bamyardgrass; [1]) was 0 and the “Barnyardgrass plant response rating” value (bamyardgrass; [9]) was 0. For the same compound, the “Barnyardgrass plant response rating” value (bamyardgrass; [10]) was 0 and the “Barnyardgrass plant response rating” value (bamyardgrass; [11]) was 0.

Source: US6737383B1, “Herbicidal oxadiazolidines” (priority 1999, dated 2004)
